Measured values taken from US20250042889A1, “3CLPRO PROTEASE INHIBITOR” (SHANGHAI QILU PHARMACEUTICAL RESEARCH AND DEVELOPMENT …, priority 2021, published 2025).

biological target: SARS-COV-2 3CLpro/Mpro protease (Severe acute respiratory syndrome coronavirus 2 (2019-nCoV) (SARS-CoV-2), UniProt P0DTD1); test: Inhibitory effect on SARS-COV-2 3CLpro/Mpro protease by fluorescence resonance energy transfer; assay type: biochemical; conditions: IC50 (nM), Inhibition on SARS-CoV-2 3CLpro/Mpro protease, activity intervals A-D

Row | SMILES | IC50 [nM]
1 | CNc1cncc(C(=O)N2CCC[C@@H](Nc3c(C(=O)N4CC5CC(C4)O5)cc(Br)cc3[N+](=O)[O-])C2)c1 [Example 266] | 10 to 50

same assay, conditions: activity intervals A-D, read-out: IC50 (nM), Inhibition on SARS-CoV-2 3CLpro/Mpro protease

Row | SMILES | IC50 [nM]
2 | CNc1cncc(C(=O)N2C[C@H](Nc3c(C(=O)N4CCN(CC(F)(F)F)CC4)cc(Br)cc3[N+](=O)[O-])C3(CC3)C2)c1 [Example 84] | 10 to 50
3 | CNc1cncc(C(=O)N2CCC[C@@H](Nc3c(C(=O)N4CC=C(C)CC4)cc(Br)cc3[N+](=O)[O-])C2)c1 [Example 311] | 10 to 50
4 | O=C(c1cncc(OC(F)F)c1)N1CCC[C@@H](Nc2c(C(=O)N3CCCCC3)cc(Br)cc2[N+](=O)[O-])C1 [Example 61] | 50 to 100
5 | O=C(c1cc(Br)cc([N+](=O)[O-])c1N[C@@H]1CCCN(C(=O)[C@H]2CNCC(F)(F)C2)C1)N1CCO[C@H](C(F)(F)F)C1 [Example 330] | 10 to 50
6 | CO[C@H]1CN(C(=O)c2cncc3[nH]nc(C)c23)C[C@@H]1Nc1c(C(=O)N2C[C@@H](C)O[C@@H](C)C2)cc(Br)cc1[N+](=O)[O-] [Example 439, (5-Bromo-2-(((3S,4S)-4-methoxy-1-(3-methyl-1H-pyrazolo[3,4-c]pyridin-4-carbonyl)pyrrolidin-3-yl)amino)-3-nitrophenyl)((2S,6R)-2,6-dimethylmorpholinyl)methanone] | 10 to 50
7 | CC1(C)C2CN(C(=O)c3cc(Br)cc([N+](=O)[O-])c3N[C@@H]3CCCN(C(=O)c4cncc5ccccc45)C3)CC21 (stereo partly drawn) [Example 7] | 10 to 50
8 | O=C(c1cncc(Br)c1)N1CCC[C@@H](Nc2c(C(=O)N3CC4CC4C3)cc(Br)cc2[N+](=O)[O-])C1 (stereo partly drawn) [Example 44] | < 10
9 | CNc1cncc(C(=O)N2CCC[C@@H](Nc3c(C(=O)N4CCc5oc(C)nc5C4)cc(Br)cc3[N+](=O)[O-])C2)c1 [Example 316] | 10 to 50
10 | CNc1cncc(C(=O)N2C[C@H](Nc3c(C(=O)N4CCN(CCOC)CC4)cc(Br)cc3[N+](=O)[O-])C(C)(C)C2)c1 [Example 191] | 10 to 50
11 | CNc1cncc(C(=O)N2C[C@H](Nc3c(C(=O)N4C[C@@H](C)O[C@@H](C)C4)cc(Br)cc3[N+](=O)[O-])C[C@H]2C(=O)Nc2cnn(C)c2)c1 [Example 401] | 50 to 100
12 | Cc1cc(C(=O)N2C[C@H](Nc3c(C(=O)N4CCN(CC(F)(F)F)CC4)cc(Br)cc3[N+](=O)[O-])C3(CC3)C2)cc(=O)[nH]1 [Example 90] | 10 to 50
13 | CNc1cncc(C(=O)N2C[C@H](Nc3c(C(=O)N4C[C@@H](C)O[C@@H](C)C4)cc(Br)cc3[N+](=O)[O-])C[C@H]2C(=O)N2CCOCC2)c1 [Example 376] | 50 to 100
14 | Cc1cc(C(=O)N2CC(Nc3c(C(=O)N4CCCCC4)cc(Br)cc3[N+](=O)[O-])C(F)(F)C2)cc(=O)[nH]1 (stereo not drawn) [Example 101] | 50 to 100
15 | CNc1cncc(C(=O)N2C[C@H](Nc3c(C(=O)N4C[C@@H](C)O[C@@H](C)C4)cc(Br)cc3[N+](=O)[O-])C[C@H]2C(=O)NCc2ccnc(C(F)F)c2)c1 [Example 431] | 50 to 100
16 | CC(=O)Nc1cncc(C(=O)N2CCC[C@@H](Nc3c(C(=O)N4CCCCC4)cc(Br)cc3[N+](=O)[O-])C2)c1 [Example 216] | 10 to 50
17 | CNc1cncc(C(=O)N2C[C@H](Nc3c(C(=O)N4C[C@@H](C)O[C@@H](C)C4)cc(Br)cc3[N+](=O)[O-])C3(CC3)C2)c1 [Example 20] | 10 to 50
18 | N#Cc1cc(Cl)cc(C(=O)N2CCCCC2)c1N[C@@H]1CCCN(C(=O)c2cncc3ccccc23)C1 [Example 59] | 10 to 50
19 | CNc1ccc2c(C(=O)N3CCC[C@@H](Nc4c(C(=O)N5C[C@@H](C)O[C@@H](C)C5)cc(Br)cc4[N+](=O)[O-])C3)cc(=O)[nH]c2c1 [Example 343] | 10 to 50
20 | CO[C@H]1CN(C(=O)c2cncc3[nH]c(C)nc23)C[C@@H]1Nc1c(C(=O)N2C[C@@H](C)O[C@@H](C)C2)cc(Br)cc1[N+](=O)[O-] [Example 449, (5-Bromo-2-(((3S,4S)-4-methoxy-1-(2-methyl-3H-imidazol[4,5-c]pyridin-7-carbonyl)pyrrolidin-3-yl)amino)-3-nitrophenyl)((2S,6R)-2,6-dimethylmorpholinyl)methanone] | 50 to 100
21 | CNc1cncc(C(=O)N2CCC[C@@H](Nc3c(C(=O)N4CC=C(F)CC4)cc(Br)cc3[N+](=O)[O-])C2)c1 [Example 337, (R)-(5-Bromo-2-((1-(5-(methylamino)nicotinoyl)piperidin-3-yl)amino)-3-nitrophenyl)(4-fluoro-3,6-dihydropyridin-1 (2H)-yl)methanone] | 10 to 50
22 | CNc1cncc(C(=O)N2CCC[C@@H](Nc3c(C(=O)N4Cc5c[nH]nc5C4)cc(Br)cc3[N+](=O)[O-])C2)c1 [Example 278] | 10 to 50
23 | C[C@H]1CCCN(C(=O)c2cc(Br)cc([N+](=O)[O-])c2N[C@@H]2CCCN(C(=O)[C@H]3CC(=O)N[C@@H](C)C3)C2)C1 [Example 33, (4R,6S)-4-((R)-3-((4-bromo-2-((S)-3-methylpiperidin-1-carbonyl)-6-nitrophenyl)amino)piperidin-1-carbonyl)-6-methylpiperidin-2-one] | 10 to 50

Row | SMILES | IC50 [nM]
24 | Cc1cc(C(=O)N2C[C@H](Nc3c(C(=O)N4C[C@H](C)C[C@H](C)C4)cc(Br)cc3[N+](=O)[O-])C3(CC3)C2)cc(=O)[nH]1 [Example 92] | 10 to 50
25 | CNc1cncc(C(=O)N2CCC[C@@H](Nc3c(C(=O)N4CCOC[C@H]4C)cc(Br)cc3[N+](=O)[O-])C2)c1 [Example 355] | 10 to 50
26 | O=C(c1cc(Br)cc([N+](=O)[O-])c1N[C@@H]1CCCN(C(=O)[C@H]2CNCC(F)(F)C2)C1)N1CCC2(CCCO2)CC1 [Example 333] | 10 to 50
27 | CNc1cncc(C(=O)N2CCC[C@@H](Nc3c(C(=O)N4Cc5cccnc5C4)cc(Br)cc3[N+](=O)[O-])C2)c1 [Example 271] | 10 to 50
28 | CNc1cncc(C(=O)N2CC(Nc3c(C(=O)N4CCCCC4)cc(Br)cc3[N+](=O)[O-])C(F)(F)C2)c1 (stereo not drawn) [Example 32, (5-Bromo-2-((4,4-difluoro-1-(5-(methylamino)nicotinoyl)pyrrolidin-3-yl)amino)-3-nitrophenyl)(piperidin-1-yl)methanone] | 10 to 50
29 | [2H]C([2H])([2H])Nc1cncc(C(=O)N2C[C@H](Nc3c(C(=O)N4C[C@@H](C)O[C@@H](C)C4)cc(Br)cc3[N+](=O)[O-])[C@@H](OC([2H])([2H])[2H])C2)c1 [Example 451] | 10 to 50
30 | O=C(N[C@H]1CCCC[C@H]1Nc1c(C(=O)N2CCCCC2)cc(Br)cc1[N+](=O)[O-])c1cncc2ccccc12 [Example 2, N-((1S,2R)-2-((4-bromo-2-nitro-6-(piperidin-1-carbonyl)phenyl)amino)cyclohexyl) isoquinolin-4-formamide] | < 10
31 | CNc1cncc(C(=O)N2C[C@H](Nc3c(C(=O)N4CCN(CCOC)CC4)cc(Br)cc3[N+](=O)[O-])C3(CC3)C2)c1 [Example 153] | 10 to 50
32 | CNc1cncc(C(=O)N2C[C@H](Nc3c(C(=O)N4C[C@@H](C)O[C@@H](C)C4)cc(Br)cc3[N+](=O)[O-])[C@@H](OCc3ccccc3)C2)c1 [Example 455] | 10 to 50
33 | CO[C@H]1CN(C(=O)c2cncc3[nH]ccc23)C[C@@H]1Nc1c(C(=O)N2C[C@@H](C)O[C@@H](C)C2)cc(Br)cc1[N+](=O)[O-] [Example 423] | 10 to 50
34 | CNc1cncc(C(=O)N2CCC[C@@H](Nc3c(C(=O)N4CCC(N5CCOCC5)CC4)cc(Br)cc3[N+](=O)[O-])C2)c1 [Example 19, (R)-(5-bromo-2-((1-(5-(methylamino)nicotinoyl)piperidin-3-yl)amino)-3-nitrophenyl)(4-morpholinopiperidin-1-yl)methanone] | 10 to 50
35 | O=C(c1cc(Br)cc([N+](=O)[O-])c1N[C@@H]1CCN(C(=O)c2cncc3cc(Cl)ccc23)C1)N1CC2CC2C1 (stereo partly drawn) [Example 51] | 10 to 50
36 | O=C1CN(C(=O)c2cc(Br)cc([N+](=O)[O-])c2N[C@@H]2CCCC[C@@H]2NC(=O)c2cncc3cc(Cl)ccc23)CCN1 [Example 25, N-((1S,2R)-2-((4-bromo-2-nitro-6-(3-oxopiperazin-1-carbonyl)phenyl)amino)cyclohexyl)-7-chloroisoquinolin-4-formamide] | 10 to 50
37 | CNc1cncc(C(=O)N2CC(Nc3c(C(=O)N4CCN(CC5CC5)CC4)cc(Br)cc3[N+](=O)[O-])C(F)(F)C2)c1 (stereo not drawn) [Example 170] | 10 to 50
38 | CNc1cncc(C(=O)N2CCC[C@@H](Nc3c(C(=O)N4CCC[C@@H](C)C4)cc(Br)cc3[N+](=O)[O-])C2)c1 [Example 253] | 50 to 100
39 | CNc1cncc(C(=O)N2C[C@H](Nc3c(C(=O)N4C[C@@H](C)O[C@@H](C)C4)cc(Br)cc3[N+](=O)[O-])C[C@H]2C(=O)Nc2ccnc(Cl)n2)c1 [Example 442, (2S,4R)-4-((4-bromo-2-((2R,6S)-2,6-dimethylmorpholin-4-carbonyl)-6-nitrophenyl)amino)-N-(2-chloropyrimidin-4-yl)-1-(5-(methylamino)nicotinoyl) pyrrolidine-2-formamide] | 10 to 50
40 | O=C(c1cncc(I)c1)N1C[C@H](Nc2c(C(=O)N3CCCCC3)cc(Br)cc2[N+](=O)[O-])C(F)(F)C1 [Example 209] | 10 to 50
41 | CNc1cncc(C(=O)N2CCC[C@@H](Nc3c(C(=O)N4C[C@H](C)O[C@@H](C)C4)cc(Br)cc3[N+](=O)[O-])C2)c1 [Example 213] | 10 to 50
42 | O=C(c1cc(Br)cc([N+](=O)[O-])c1N[C@@H]1CCCN(C(=O)c2cncc3[nH]ccc23)C1)N1CCC(F)(F)CC1 [Example 28] | 10 to 50
43 | CNc1cncc(C(=O)N2CCC[C@@H](Nc3c(C(=O)N4CCC(F)(F)C4)cc(Br)cc3[N+](=O)[O-])C2)c1 [Example 255] | 10 to 50
44 | CNc1cncc(C(=O)N2C[C@H](Nc3c(C(=O)N4C[C@@H](C)O[C@@H](C)C4)cc(Br)cc3[N+](=O)[O-])C[C@H]2C(=O)Nc2nn(C)cc2Br)c1 [Example 383, (2S,4R)—N-(4-bromo-1-methyl-1H-pyrazol-3-yl)-4-((4-bromo-2-((2R,6S)-2,6-dimethylmorpholin-4-carbonyl)-6-nitrophenyl)amino)-1-(5-(methylamino)nicotinoyl) pyrrolidin-2-formamide] | 10 to 50
45 | C[C@@H]1CN(C(=O)c2cc(Br)cc([N+](=O)[O-])c2N[C@@H]2CCCN(C(=O)[C@H]3CC(=O)Nc4ccccc43)C2)C[C@H](C)O1 [Example 274] | < 10
